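A five-concentration, 48-hour dose response in 96-well plates underlies each endpoint, interpolated linearly between surrounding concentrations. At the GI50, growth is halved. TGI denotes the concentration required for complete inhibition of growth.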
Columns and labels:
Test in all cases: NCI tumour cell line growth inhibition, 48 h
IGROV1 ovarian = test system: IGROV1 ovarian
K-562 leukemia = test system: K-562 leukemia
A498 renal = test system: A498 renal
OVCAR-8 ovarian = test system: OVCAR-8 ovarian
HCC-2998 colon = test system: HCC-2998 colon
SNB-75 CNS = test system: SNB-75 CNS
HCT-15 colon = test system: HCT-15 colon
HS 578T breast = test system: HS 578T breast
KM12 colon = test system: KM12 colon
MOLT-4 leukemia = test system: MOLT-4 leukemia

| SMILES | GI50 (IGROV1 ovarian) [µM] | TGI (IGROV1 ovarian) [µM] | GI50 (K-562 leukemia) [µM] | TGI (K-562 leukemia) [µM] | GI50 (A498 renal) [µM] | TGI (A498 renal) [µM] | GI50 (OVCAR-8 ovarian) [µM] | TGI (OVCAR-8 ovarian) [µM] | GI50 (HCC-2998 colon) [µM] | TGI (HCC-2998 colon) [µM] | GI50 (SNB-75 CNS) [µM] | TGI (SNB-75 CNS) [µM] | GI50 (HCT-15 colon) [µM] | TGI (HCT-15 colon) [µM] | GI50 (HS 578T breast) [µM] | TGI (HS 578T breast) [µM] | GI50 (KM12 colon) [µM] | TGI (KM12 colon) [µM] | GI50 (MOLT-4 leukemia) [µM] | TGI (MOLT-4 leukemia) [µM] |
| --- | --- | --- | --- | --- | --- | --- | --- | --- | --- | --- | --- | --- | --- | --- | --- | --- | --- | --- | --- | --- |
| COC1CCC(OC)C(c2nc3sccn3c2/C=N/N=C(N)N)C1 (stereo not given) | 50 | > 100 | 35.4 | > 63.3 | 10.9 | 41.5 | 22.1 | 55.6 | 31.1 | 54.5 | 6.44 | > 77.2 | > 100 | > 100 | 24.6 | 68.6 | 16 | 40.2 | > 74.6 | > 100 |
| Fc1ccc(-c2ncn(C3CCNCC3)c2-c2ccnc(Oc3ccc(Cl)cc3)n2)cc1 | 4.62 | 13.3 | 4.7 | 11.2 | 3.67 | 21.4 | 4.14 | 8.99 | 4.12 | 7.93 | 3.4 | 14.3 | 4.24 | 9.46 | 2.58 | > 11.3 | 4.51 | 8.79 | 5.18 | 12.9 |
| CCOC(=O)C(Cc1cc(OC)c(CC(C(=O)OCC)C(=O)OCC)cc1OC)C(=O)OCC | – | > 100 | – | > 100 | – | > 100 | – | > 100 | – | > 100 | – | 57.6 | – | > 100 | – | > 100 | – | > 100 | – | > 100 |
| CCOC(=O)/C=C/c1ccc([N+](=O)[O-])o1 | 10.9 | 24.8 | 2.97 | 12.9 | 21 | 48.8 | 2.91 | 12.3 | 11.2 | 24.2 | 4.6 | 94 | 2.03 | 7.53 | 5.74 | 53.9 | 12.6 | 27.6 | 2.76 | 13 |
| C=C1C(=O)O[C@@H]2C[C@@H](C)[C@@H]3C=CC(=O)[C@@]3(C)[C@@H](OC(=O)CCCC(=O)O[C@H]3[C@@H]4C(=C)C(=O)O[C@@H]4C[C@@H](C)[C@@H]4C=CC(=O)[C@]43C)[C@H]12 | – | 0.313 | – | 0.0363 | – | 0.546 | – | 0.0295 | – | 1.27 | – | 0.482 | – | 0.112 | – | 0.433 | – | 0.662 | – | 0.0634 |
| CC(C)(O)c1cc(Nc2cc(Oc3cn(C4CC4)nc3C3CCOCC3)ccn2)ccn1 | 62.4 | > 100 | 27.5 | > 100 | 63.1 | > 100 | > 100 | > 100 | > 100 | > 100 | 22 | > 100 | > 100 | > 100 | 73.8 | > 100 | > 100 | > 100 | 91.7 | > 100 |
| CC(=O)/C(=N\N=C(N)N)c1ccccc1 | – | > 100 | – | > 100 | – | > 100 | – | > 100 | – | > 100 | – | > 100 | – | > 100 | – | > 100 | – | > 100 | – | > 100 |
| CCN(CC)c1ccc(/C=N/N=C(N)N)cc1 | 8.11 | 55.1 | 3.02 | 16.4 | 2.25 | 21.9 | 5.06 | 23.5 | 4.68 | 17.3 | 3.74 | > 100 | 4.76 | 55.8 | 3.68 | 26.5 | 3.47 | 16.4 | 4.95 | 35.7 |
| COc1ccc(C(=O)c2ccccc2)c(O)c1 | > 100 | > 100 | 91 | > 100 | 16 | > 100 | > 100 | > 100 | > 100 | > 100 | 20.4 | > 100 | 80.7 | > 100 | 61.2 | > 100 | 63 | > 100 | 70.6 | > 100 |
| N#C/C(=C/C=C/c1cccc(Cl)c1)S(=O)c1ccccc1 (stereo not given) | 0.399 | 1.71 | 0.301 | 13.2 | 1.8 | 3.53 | 0.256 | 0.629 | 0.366 | 1.31 | 1.2 | 3.82 | 0.197 | 0.56 | 1.68 | 33.4 | 0.321 | 1.38 | 0.307 | 2.28 |
| CC(=O)c1nc(-c2ccc(C[C@@H](CNC(=O)CN(C)C)NC(=O)c3ccc(OC(C)C)c(Cl)c3)cc2)cn1C | 0.896 | 21.9 | < 0.0196 | 12.9 | 0.0407 | 2.04 | 0.0617 | 23.4 | 0.134 | 21.8 | 0.0761 | 13.9 | 0.0899 | 19.3 | 0.0615 | 21.3 | 0.0662 | 21.1 | 0.0406 | 15 |
| COc1ccc2c(c1)[n+](=O)c(/C=C/C(=O)c1cc(OC)c(OC)c(OC)c1)c(C)n2[O-] | 18.2 | > 100 | 2.59 | > 100 | 20.5 | 54.2 | 5.3 | > 100 | 23.4 | 68.7 | 11.9 | 43.1 | 3.79 | 23.2 | 4.72 | 46.6 | 14.4 | 60.5 | 2.55 | 25.3 |
| O=C1C=C(NCCc2ccccc2)c2ccccc2C1=O | – | 21.3 | – | 20.4 | – | 10.1 | – | 19.7 | – | 4.09 | – | 3.14 | – | 3.6 | – | 5.09 | – | 8.72 | – | 64.8 |
| O=S1(=O)CCC2=CC(C(F)(F)F)=CC(C(F)(F)F)=CN21 | – | 3.66 | – | 6.61 | – | 3.84 | – | 2.25 | – | 3.68 | – | 4.39 | – | 1.5 | – | > 43.4 | – | 3.54 | – | 1.8 |
| COc1ccc(C2=NNC(c3sc(Cl)nc3Cl)C2)cc1 (stereo not given) | 5.21 | 22.2 | 3.63 | 36.8 | 33.1 | > 100 | 3.6 | 21.5 | 16.9 | 33.9 | 36.6 | > 100 | 3.78 | 19.3 | 16.8 | 67.4 | 5.56 | 19.8 | 3.58 | 22.1 |

Reference: PubChem BioAssay (NCI)
